Among the data in US8889667B2 (Agios Pharmaceuticals, Inc, priority 2010, dated 2014) are AC50 values, retold here.

Some results are limits rather than exact numbers.

In the assay the target is PKM2 (Homo sapiens, UniProt P14618). Put plainly: PKM2 Assay (activation, LDH-coupled, absorbance at 340 nm). It counts as biochemical. A digest of the protocol:
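Human PKM2 (50 ng/well) was preincubated with compound and coupling mix for 30 min at 4 °C without ADP. Reactions were then started with ADP (0.7 mM) alongside PEP 0.15 mM, NADH 180 μM and LDH, in Tris pH 7.5/KCl/MgCl2/DTT/BSA buffer. A340 was followed at 25 °C and activation reported as AC50.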

PKM2, sequence (P14618 whole entry): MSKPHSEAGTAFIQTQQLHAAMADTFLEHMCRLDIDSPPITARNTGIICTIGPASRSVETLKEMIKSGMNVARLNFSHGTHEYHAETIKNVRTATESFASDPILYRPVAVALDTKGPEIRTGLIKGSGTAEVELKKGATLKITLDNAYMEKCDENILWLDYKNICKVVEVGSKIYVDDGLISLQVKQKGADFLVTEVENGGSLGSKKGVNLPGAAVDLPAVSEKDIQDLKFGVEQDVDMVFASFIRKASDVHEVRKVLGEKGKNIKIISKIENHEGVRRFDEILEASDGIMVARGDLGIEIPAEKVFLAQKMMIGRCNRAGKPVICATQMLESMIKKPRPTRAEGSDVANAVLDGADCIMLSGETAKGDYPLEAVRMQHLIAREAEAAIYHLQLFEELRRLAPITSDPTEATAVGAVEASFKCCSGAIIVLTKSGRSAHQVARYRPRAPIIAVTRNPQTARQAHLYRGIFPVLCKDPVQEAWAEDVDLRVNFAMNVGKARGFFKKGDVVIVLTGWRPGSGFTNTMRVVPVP

As to `CC(c1c(F)cc(F)cc1F)N1CCN(C(=O)c2ccc(NS(=O)(=O)c3cccc4cccnc34)cc2)CC1` (centres unmarked) [Compound 397, N-(4-(4-(1-(2,4,6-trifluorophenyl)ethyl)piperazine-1-carbonyl)phenyl)quinoline-8-sulfonamide], the AC50 (Table 5) is less than 100 nM.

`O=C(c1ccc(NS(=O)(=O)c2cccc3cccnc23)c(OC(F)(F)F)c1)N1CCN(Cc2ccc(Cl)cc2F)CC1` [Compound 339, N-(4-(4-(4-chloro-2-fluorobenzyl)piperazine-1-carbonyl)-2-(trifluoromethoxy)phenyl)quinoline-8-sulfonamide] displayed an AC50 (Table 5) of 100 to 500 nM.

`O=C(c1ccc(NS(=O)(=O)c2cccc3cccnc23)cc1Cl)N1CCN(Cc2cc(F)cc(F)c2)CC1` [Compound 426, N-(3-chloro-4-(4-(3,5-difluorobenzyl)piperazine-1-carbonyl)phenyl)quinoline-8-sulfonamide] showed an AC50 (Table 5) of less than 100 nM.

For `C[C@@H]1CN(C(=O)c2ccc(NS(=O)(=O)c3cccc4cccnc34)cc2)CCN1C(=O)c1ccccn1` [Compound 102], where the note is “Table 4”, the half-maximal activity concentration (AC50) is 100 to 500 nM.

In the case of `CC(c1ccc(F)c(Cl)c1)N1CCN(C(=O)c2ccc(NS(=O)(=O)c3cccc4cccnc34)cc2)CC1` (centres unmarked) [Compound 332, N-(4-(4-(1-(3-chloro-4-fluorophenyl)ethyl)piperazine-1-carbonyl)phenyl)quinoline-8-sulfonamide], the AC50 (Table 5) was less than 100 nM.

With `O=C(c1ccc(NS(=O)(=O)c2cccc3cccnc23)c(OC(F)(F)F)c1)N1CCN(Cc2cnccc2C(F)(F)F)CC1` [Compound 366, N-(2-(trifluoromethoxy)-4-(4-((4-(trifluoromethyl)pyridin-3-yl)methyl)piperazine-1-arbonyl)phenyl)quinoline-8-sulfonamide], the AC50 (Table 5) fell in the range of 100 to 500 nM.

For `C[C@@H]1CN(C(=O)OC2CCOCC2)CCN1C(=O)c1ccc(NS(=O)(=O)c2cccc3cccnc23)cc1` [Compound 124, (R)-Tetrahydro-2H-pyran-4-yl-3-methyl-4-(4-(quinoline-8-sulfonamido)benzoyl)piperazine-1-carboxylate], the concentration at half-maximal activity (AC50) (Table 4) was 100 to 500 nM.

For the setting “Table 5”, `O=C(c1ccc(NS(=O)(=O)c2cccc3cccnc23)cc1Cl)N1CCN(Cc2cc(F)c(F)c(F)c2)CC1` [Compound 434, N-(3-chloro-4-(4-(3,4,5-trifluorobenzyl)piperazine-1-carbonyl)phenyl)quinoline-8-sulfonamide] came in with a half-maximal activity concentration (AC50) of less than 100 nM.

The molecule `O=C(c1ccc(NS(=O)(=O)c2cccc3cccnc23)cc1)N1CCN(Cc2ccc(F)cc2)CC1` [Compound 341, N-(4-(4-(4-fluorobenzyl)piperazine-1-carbonyl)phenyl)quinoline-8-sulfonamide] registered an AC50 (Table 5) of less than 100 nM.

With `O=C(c1ccc(NS(=O)(=O)c2cccc3cccnc23)nc1)N1CCN(Cc2ccc(F)cc2)CC1` [Compound 412, N-(5-(4-(4-fluorobenzyl)piperazine-1-carbonyl)pyridin-2-yl)quinoline-8-sulfonamide], the half-maximal activity concentration (AC50) (Table 5) is 100 to 500 nM.

Consider `C[C@H]1CN(Cc2cc(F)cc(F)c2F)CCN1C(=O)c1ccc(NS(=O)(=O)c2cccc3cccnc23)cc1` [Compound 137, (S)—N-(4-(2-methyl-4-(2,3,5-trifluorobenzyl)piperazine-1-carbonyl)phenyl)quinoline-8-sulfonamide], for which the half-maximal activity concentration (AC50) (Table 4) is less than 100 nM.

For the setting “Table 5”, `COc1ccc(CN2CCN(C(=O)c3ccc(NS(=O)(=O)c4cccc5cccnc45)c(OC(F)(F)F)c3)CC2)c(OC)c1` [Compound 333, N-(4-(4-(2,4-dimethoxybenzyl)piperazine-1-carbonyl)-2-(trifluoromethoxy)phenyl)quinoline-8-sulfonamide] yielded a half-maximal activity concentration (AC50) of 500 to 1000 nM.

Under “Table 4”, `O=C(c1ccc(NS(=O)(=O)c2cccc3cccnc23)cc1)N1C2CCC1CN(Cc1ccccc1)C2` [Compound 213] came in with a half-maximal activity concentration (AC50) of less than 100 nM.

Molecule `CC(c1c(F)ccc(F)c1F)N1CCN(C(=O)c2ccc(NS(=O)(=O)c3cccc4cccnc34)cc2)[C@H](C)C1` (stereo partly drawn) [Compound 190, N-(4-((2R)-2-methyl-4-(1-(2,3,6-trifluorophenyl)ethyl)piperazine-1-carbonyl)phenyl)quinoline-8-sulfonamide] came in with a concentration at half-maximal activity (AC50) (Table 4) of less than 100 nM.

In turn, `CC(c1cc(F)c(F)cc1F)N1CCN(C(=O)c2ccc(NS(=O)(=O)c3cccc4cccnc34)cc2)CC1` (centres unmarked) [Compound 395, N-(4-(4-(1-(2,4,5-trifluorophenyl)ethyl)piperazine-1-carbonyl)phenyl)quinoline-8-sulfonamide] came in with an AC50 (Table 5) of less than 100 nM.

The molecule `C[C@@H]1CN(Cc2ccc(F)c(F)c2F)CCN1C(=O)c1ccc(NS(=O)(=O)c2cccc3cccnc23)cc1` [Compound 118, (R)—N-(4-(2-methyl-4-(2,3,4-trifluorobenzyl)piperazine-1-carbonyl)phenyl)quinoline-8-sulfonamide] displayed an AC50 (Table 4) of less than 100 nM.

The molecule `CC(c1cc(F)c(F)cc1F)N1CCN(C(=O)c2ccc(NS(=O)(=O)c3cccc4cccnc34)cc2)[C@H](C)C1` (some centres unmarked) [Compound 168] had a concentration at half-maximal activity (AC50) (Table 4) of 100 to 500 nM.

On to `C[C@H]1CN(C[C@H]2CCCO2)CCN1C(=O)c1ccc(NS(=O)(=O)c2cccc3cccnc23)cc1` (stereo in doubt) [Compound 211, N-(4-((2S)-2R-methyl-4-((tetrahydrofuran-2-yl)methyl)piperazine-1-carbonyl)phenyl)quinoline-8-sulfonamide], for which, where the note is “Table 4”, the AC50 is less than 100 nM.

Molecule `CC[C@H]1CN(C(C)c2cc(F)c(F)c(F)c2)CCN1C(=O)c1ccc(NS(=O)(=O)c2cccc3cccnc23)cc1` (stereo partly drawn) [Compound 162, N-(4-((2S)-2-ethyl-4-(1-(3,4,5-trifluorophenyl)ethyl)piperazine-1-carbonyl)phenyl)quinoline-8-sulfonamide] returned an AC50 (Table 4) of 100 to 500 nM.

Where the note is “Table 4”, `C[C@@H]1CN(CC2CCC2)CCN1C(=O)c1ccc(NS(=O)(=O)c2cccc3cccnc23)cc1` [Compound 206, (R)—N-(4-(4-(cyclobutylmethyl)-2-methylpiperazine-1-carbonyl)phenyl)quinoline-8-sulfonamide] came in with an AC50 of less than 100 nM.

For the setting “Table 5”, `O=C(c1ccc(NS(=O)(=O)c2cccc3cccnc23)cc1)N1CCN(C(=O)C2CCOCC2)CC1` [Compound 417, N-(4-(4-(tetrahydro-2H-pyran-4-carbonyl)piperazine-1-carbonyl)phenyl)quinoline-8-sulfonamide] yielded an AC50 of 100 to 500 nM.

Molecule `C[C@H]1CN(CC2CC2)CCN1C(=O)c1ccc(NS(=O)(=O)c2cccc3cccnc23)cc1` [Compound 144, (S)—N-(4-(4-(cyclopropylmethyl)-2-methylpiperazine-1-carbonyl)phenyl)quinoline-8-sulfonamide] yielded a concentration at half-maximal activity (AC50) (Table 4) of less than 100 nM.

Take `CC(c1cc(F)c(F)c(F)c1)N1CCN(C(=O)c2ccc(NS(=O)(=O)c3cccc4cccnc34)cc2)CC1` (centres unmarked) [Compound 398, N-(4-(4-(1-(3,4,5-trifluorophenyl)ethyl)piperazine-1-carbonyl)phenyl)quinoline-8-sulfonamide]: the AC50 (Table 5) fell in the range of 1000 to 20000 nM.

The molecule `O=C(c1ccc(NS(=O)(=O)c2cccc3cccnc23)c(OC(F)(F)F)c1)N1CCN(C2(c3ccc(F)cc3)CC2)CC1` [Compound 402, N-(4-(4-(1-(4-fluorophenyl)cyclopropyl)piperazine-1-carbonyl)-2-(trifluoromethoxy)phenyl)quinoline-8-sulfonamide] gave a half-maximal activity concentration (AC50) (Table 5) of 100 to 500 nM.

`C[C@H]1CN(Cc2cc(F)cc(F)c2)CCN1C(=O)c1ccc(NS(=O)(=O)c2cccc3cccnc23)cc1Cl` [Compound 179] showed an AC50 (Table 4) of 100 to 500 nM.

The molecule `O=C(c1ccc(NS(=O)(=O)c2cccc3cccnc23)c(OC(F)(F)F)c1)N1CCN(Cc2ccc(F)cc2F)CC1` [Compound 369, N-(4-(4-(2,4-difluorobenzyl)piperazine-1-carbonyl)-2-(trifluoromethoxy)phenyl)quinoline-8-sulfonamide] registered a half-maximal activity concentration (AC50) (Table 5) of 500 to 1000 nM.

`CC(C1CC1)N1CCN(C(=O)c2ccc(NS(=O)(=O)c3cccc4cccnc34)cc2)CC1` (centres unmarked) [Compound 442, N-(4-(4-(1-cyclopropylethyl)piperazine-1-carbonyl)phenyl)quinoline-8-sulfonamide]: the AC50 (Table 5) is less than 100 nM.

For `O=C(c1ccc(NS(=O)(=O)c2cccc3cccnc23)cc1)N1CCN(C(=O)c2cnns2)CC1` [Compound 313, N-(4-(4-(1,2,3-thiadiazole-5-carbonyl)piperazine-1-carbonyl)phenyl)quinoline-8-sulfonamide], under “Table 5”, the concentration at half-maximal activity (AC50) is less than 100 nM.

`O=C(c1ccc(NS(=O)(=O)c2cccc3cccnc23)cc1)N1CCN(C[C@@H]2CCOC2)CC1` [Compound 445, (R)— and (S)—N-(4-(4-((tetrahydrofuran-3-yl)methyl)piperazine-1-carbonyl)phenyl)quinoline-8-sulfonamide] had an AC50 (Table 5) of less than 100 nM.

For `O=C(c1ccc(NS(=O)(=O)c2cccc3cccnc23)cc1)N1CCN(C(=O)C2CCOC2)CC1` (centres unmarked) [Compound 418, N-(4-(4-(tetrahydrofuran-3-carbonyl)piperazine-1-carbonyl)phenyl)quinoline-8-sulfonamide], the AC50 (Table 5) is 100 to 500 nM.

For the molecule `CC(c1cc(F)c(F)cc1F)N1CCN(C(=O)c2ccc(NS(=O)(=O)c3cccc4cccnc34)cc2)[C@@H](C)C1` (some centres unmarked) [Compound 174], where the note is “Table 4”, the AC50 is 100 to 500 nM.

`O=C(c1ccc(NS(=O)(=O)c2cccc3cccnc23)c(OC(F)(F)F)c1)N1CCN(Cc2cc(Cl)cc(Cl)c2)CC1` [Compound 391, N-(4-(4-(3,5-dichlorobenzyl)piperazine-1-carbonyl)-2-(trifluoromethoxy)phenyl)quinoline-8-sulfonamide] registered a concentration at half-maximal activity (AC50) (Table 5) of 100 to 500 nM.

In turn, `O=C(c1cccnc1)N1CCN(C(=O)c2ccc(NS(=O)(=O)c3cccc4cccnc34)c(OC(F)(F)F)c2)CC1` [Compound 323, N-(4-(4-nicotinoylpiperazine-1-carbonyl)-2-(trifluoromethoxy)phenyl)quinoline-8-sulfonamide] displayed a concentration at half-maximal activity (AC50) (Table 5) of 500 to 1000 nM.

Regarding `O=C(c1ccc(NS(=O)(=O)c2cccc3cccnc23)cc1)N1CCN(Cc2cc(F)cc(F)c2)C[C@@H]1c1ccccc1` [Compound 181], the half-maximal activity concentration (AC50) (Table 4) was 100 to 500 nM.

Turning to `CCOC(=O)N1CCN(C(=O)c2ccc(NS(=O)(=O)c3cccc4cccnc34)cc2)[C@@H](C)C1` [Compound 107, (S)-Ethyl 3-methyl-4-(4-(quinoline-8-sulfonamido)benzoyl)piperazine-1-carboxylate], for the setting “Table 4”, the AC50 lay within 500 to 1000 nM.

Broadly, the AC50 is the concentration at which the activity in the assay is half-maximal. A lower AC50 goes with activity at low concentration.
